pEC50, pIC50: −log10 of the molar value. Where two headings read alike, the source gives them in different places.
Assays:
VV = assay: microbe, parasite or virus in culture; assay type: cell-based, vaccinia virus; conditions: Orthopoxvirus vaccinia, BSC-1, read-out: VV EC50
mD4-VV surrogate virus = assay: microbe, parasite or virus in culture; assay type: cell-based, mD4/vaccinia hybrid virus; conditions: Hybrid virus, BSC-1, read-out: mD4 EC50
[1] = target: E9/A20/D4 proteins (molluscum mD4) (Molluscum contagiosum virus, UniProt Q98260); assay: biochemical
Sequence of E9/A20/D4 proteins (molluscum mD4) (Q98260 1-226): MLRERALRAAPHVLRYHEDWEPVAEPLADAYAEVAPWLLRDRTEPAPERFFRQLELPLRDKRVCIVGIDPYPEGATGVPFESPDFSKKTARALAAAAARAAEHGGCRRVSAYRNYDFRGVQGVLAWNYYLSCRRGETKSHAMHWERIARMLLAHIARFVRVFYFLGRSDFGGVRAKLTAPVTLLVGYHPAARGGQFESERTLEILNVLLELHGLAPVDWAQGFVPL

D4 [2] = target: T1, D4 (Vaccinia virus, UniProt P04303, Y163F); assay type: binding; conditions: for thermal shift (in words): up to 50 μM
D4 [3] = target: T1, D4; assay type: binding; parameters: made in house; host or cells: bacterial cells (IPTG induction); purified for SPR, crude lysate for DARTS
D4 [4] = target: T1, D4; assay type: binding; parameters: made in house; host or cells: bacterial cells (IPTG induction); purified for SPR, crude lysate for DARTS; remark: listed apart in the source
MBP = target: T2, MBP (Escherichia coli, UniProt P0AEX9); assay: DARTS, unrelated control protein MBP; assay type: binding; conditions: crude cell lysates
T2 construct: made in house; host or cells: bacterial cells, crude lysate

[5] = tested on: human estrogen receptor beta (ERβ-N), MBP fusion; assay: DARTS, unrelated control protein ERβ-N; assay type: binding; conditions: crude cell lysates
[6] = tested on: duplex or single-stranded DNA; assay: Isothermal titration calorimetry (ITC) DNA binding; conditions: 40 μM compound, 25° C.
Experimental: Fish sperm DNA (USB Scientific, USA) was dissolved in water and fragmented by sonication in order to generate a random DNA mix. The fragmented DNA was then dialyzed into column buffer absence of glycerol. The 15-mer oligomer comprised of poly d(TC) (Integrated DNA Technologies, USA) was directly prepared in the same buffer without the dialysis step. DNA and compounds were prepared in the same dialysis buffer with added 2.5 mM DTT, 1% DMSO, and 0.005% Tween-20. DNA binding was then assessed by isothermal titration calorimetry (ITC) on a MicroCal iTC200 microcalorimeter (Malvern Instruments, United Kingdom) by titrating 3 μL/injection of 1.2 mg/mL of random DNA (with unknown molar concentration) or 5.3 mg/L of single-stranded DNA into the sample consisting of 40 μM of compound. Experiments were performed at 25° C. with 800 rpm stirring and 3-min spacing in order to allow equilibration. Ethidium bromide (Sigma-Aldrich, USA) was freshly prepared in water. Since the molar concentrations of the DNA ligands were undefined, only raw heat values are depicted.

[7] = target: T3, E9/A20/D4 proteins (vaccinia virus vD4) (Vaccinia virus, UniProt P04303, Y163F); assay type: biochemical
T3 construct: made in house; host or cells: TNT reticulocyte lysate (in vitro translation)

[8] = target: UL30 (DNA polymerase) and UL42 (processivity factor) (Human herpesvirus 1, UniProt P04293+P10226); assay type: biochemical, HSV-1
Sequence of UL30 (DNA polymerase) and UL42 (processivity factor) (P10226 whole entry): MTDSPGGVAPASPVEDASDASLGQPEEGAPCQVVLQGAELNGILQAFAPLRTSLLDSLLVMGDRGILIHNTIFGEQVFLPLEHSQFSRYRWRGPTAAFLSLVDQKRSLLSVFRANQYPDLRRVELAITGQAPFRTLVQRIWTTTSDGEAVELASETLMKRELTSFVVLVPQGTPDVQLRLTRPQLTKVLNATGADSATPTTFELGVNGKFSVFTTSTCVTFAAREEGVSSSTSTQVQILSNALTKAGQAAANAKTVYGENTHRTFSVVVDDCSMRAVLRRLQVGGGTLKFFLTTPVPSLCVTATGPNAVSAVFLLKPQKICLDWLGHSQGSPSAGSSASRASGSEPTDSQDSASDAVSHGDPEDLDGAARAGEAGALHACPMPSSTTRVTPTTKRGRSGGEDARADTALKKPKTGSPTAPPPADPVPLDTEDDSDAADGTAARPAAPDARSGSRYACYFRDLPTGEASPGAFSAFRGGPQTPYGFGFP
Sequence of UL30 (DNA polymerase) and UL42 (processivity factor) (P04293 whole entry): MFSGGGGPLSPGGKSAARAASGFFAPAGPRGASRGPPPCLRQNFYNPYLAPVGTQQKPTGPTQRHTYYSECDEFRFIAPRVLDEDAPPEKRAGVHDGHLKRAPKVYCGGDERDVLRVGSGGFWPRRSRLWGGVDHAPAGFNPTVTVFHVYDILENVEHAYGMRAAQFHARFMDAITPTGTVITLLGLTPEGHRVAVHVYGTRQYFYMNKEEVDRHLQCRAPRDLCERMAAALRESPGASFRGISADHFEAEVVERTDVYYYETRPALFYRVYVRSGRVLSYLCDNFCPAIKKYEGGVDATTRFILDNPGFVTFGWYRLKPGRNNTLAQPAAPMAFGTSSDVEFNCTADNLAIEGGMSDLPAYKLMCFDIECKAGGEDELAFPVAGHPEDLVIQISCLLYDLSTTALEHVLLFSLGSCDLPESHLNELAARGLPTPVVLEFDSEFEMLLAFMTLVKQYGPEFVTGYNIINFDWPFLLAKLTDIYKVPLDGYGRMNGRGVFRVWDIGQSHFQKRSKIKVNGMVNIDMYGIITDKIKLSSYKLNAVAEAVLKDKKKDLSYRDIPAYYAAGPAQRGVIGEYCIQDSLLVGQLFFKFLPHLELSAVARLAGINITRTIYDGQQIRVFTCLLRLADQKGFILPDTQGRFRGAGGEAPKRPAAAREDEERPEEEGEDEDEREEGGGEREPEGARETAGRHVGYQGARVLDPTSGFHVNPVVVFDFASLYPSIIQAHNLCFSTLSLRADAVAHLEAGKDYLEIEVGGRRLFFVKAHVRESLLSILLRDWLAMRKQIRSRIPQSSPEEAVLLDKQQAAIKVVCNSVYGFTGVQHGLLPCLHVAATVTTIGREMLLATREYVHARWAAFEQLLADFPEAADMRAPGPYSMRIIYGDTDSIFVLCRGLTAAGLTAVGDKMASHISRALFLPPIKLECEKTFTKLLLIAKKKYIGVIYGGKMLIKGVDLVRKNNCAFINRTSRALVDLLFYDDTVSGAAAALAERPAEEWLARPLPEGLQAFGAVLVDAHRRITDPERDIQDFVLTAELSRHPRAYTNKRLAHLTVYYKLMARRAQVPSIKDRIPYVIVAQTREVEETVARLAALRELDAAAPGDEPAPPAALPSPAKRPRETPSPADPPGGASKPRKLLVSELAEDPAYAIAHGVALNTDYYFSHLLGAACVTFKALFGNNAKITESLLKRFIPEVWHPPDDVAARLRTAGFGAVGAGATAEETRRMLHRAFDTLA

HSV-1 = assay type: cell-based; conditions: Vero cells
[9] = Irritancy on human cadaver skin; conditions: gel formulated 99
Experimental: Briefly, gel was applied to shaved skin areas, covered for 24 hours and irritancy was measured daily for 3 days after uncovering using the Draize scoring system.

[10] = Solubility in receptor medium; conditions: 1×PBS/4% BSA receptor medium, typical IVPT study
Description: For this study, human torso skin was used rather than a membrane. Initially, methods development was done to identify the receiving medium in the reservoir of the Franz cell apparatus which provided the greatest compound solubility so that percentages of full penetration would not be underestimated due to poor solubility.

in vitro = conditions: African green monkey

Structure (SMILES)	pEC50 (mD4-VV surrogate virus)	pIC50 [1]	also measured
CCC(C(=O)Nc1sc(C(N)=O)c(C)c1C(=O)OC)c1ccccc1 (single isomer, unassigned) [Compound 29, Methyl 2-(2-phenylbutanamido)-5-carbamoyl-4-methylthiophene-3-carboxylate]	4.71	4.87	pEC50 (VV): 4.55
Nc1ccn(C[C@@H](CO)OCP(=O)(O)O)c(=O)n1 [CDV, 1-((3-hydroxy-2-phosphonylmethoxy)propyl)cytosine]	–	–	ΔTm (D4 [2]; 25 µM): −0.37 ± 0.14; ° C.; ΔTm (D4 [2]; 50 µM): −0.27 ± 0.37 °C; thermal shift (in words) (D4 [2]): no thermal shifts; SPR binding to D4 (in words) (D4 [3]): near-baseline signals; effect on D4 protein levels after Pronase proteolysis (in words) (D4 [4]): did not affect the protein levels of D4
CCC(C(=O)Nc1sc(C(N)=O)c(C)c1C(=O)OC)c1ccccc1 (centres unmarked) [Compound 1, methyl 5-carbamoyl-4-methyl-2-(2-phenylbutanamido)thiophene-3-carboxylate]	4.64	4.79	ΔTm (D4 [2]; 25 µM): −0.86; ΔTm (D4 [2]; 50 µM): −1.55; effect on MBP protein levels after proteolysis (in words) (MBP): inability; effect on ERβ-N protein levels after proteolysis (in words) [5]: inability; DNA binding heat traces (in words) [6]: no appreciable total heats; pEC50 (VV): 4.82; inhibition of VACV DNA synthesis compared with mD4 reaction (in words) [7]: Nearly identical inhibition; inhibition of DNA synthesis using HSV-1 proteins (in words) [8]: no inhibition; antiviral activity against HSV-1 infection (in words) (HSV-1): lack of antiviral activity; effect on D4 protein levels after Pronase proteolysis (in words) (D4 [4]): increase in D4 protein levels
O=C(NCc1ccc(Cl)cc1)c1nnsc1NC(=O)N1CCN(c2ccccn2)CC1 [Compound 83, N-(4-chlorobenzyl)-5-(4-(pyridin-2-yl)piperazine-1-carboxamido)-1,2,3-thiadiazole-4-carboxamide]	5.11	4.50	pEC50 (VV): 5.14
CCC(C(=O)Nc1sc(C(N)=O)c(C)c1C(=O)OC)c1ccc(F)cc1 (centres unmarked) [Compound 99, 5-Carbamoyl-2-[2-(4-fluoro-phenyl)-butyrylamino]-4-methyl-thiophene-3-carboxylic acid methyl ester]	5.06	5.05	pEC50 (VV): 5.05; irritancy score [9]: non-irritant; solubility sufficient to detect % of the applied amount [10]: up to 143%
O=C(NCc1ccc(Cl)cc1)c1ccsc1NC(=O)N1CCN(c2ccccn2)CC1 [Compound 111, 4-Pyridin-2-yl-piperazine-1-carboxylic acid [3-(4-chloro-benzyl carbamoyl)-thiophen-2-yl]-amide]	5.15	4.20	solubility sufficient to detect % of the applied amount [10]: ≤ 90%
O=C(NCc1ccc(Cl)cc1)c1nnsc1NC(=O)C1CCN(c2ccccn2)CC1 [Compound 167, N-(4-(4-Chlorobenzylcarbamoyl)-1,2,3-thiadiazol-5-yl)-1-(pyridin-2-yl)piperidine-4-carboxamide]	4.75	4.01	–
O=C(NCc1ccc(Cl)cc1)c1nnsc1NC(=O)N1CCN(c2ccccc2F)CC1 [Compound 168, 4-(2-Fluoro-phenyl)-piperazine-1-carboxylic acid [4-(4-chloro-benzylcarbamoyl)-[1,2,3]thiadiazol-5-yl]-amide]	4.92	4.58	–
O=C(NCc1ccc(Cl)nc1)c1ccsc1NC(=O)N1CCN(c2ccccn2)CC1 [Compound 170, N-(3-((6-Chloropyridin-3-yl)methylcarbamoyl)thiophen-2-yl)-4-(pyridin-2-yl)piperazine-1-carboxamide]	4.83	< 3.70	–
COc1ccccc1CN(C)C(=O)c1ccsc1NC(=O)N1CCN(c2ccccn2)CC1 [Compound 172, N-(3-(N-(2-Methoxybenzyl)-N-methylcarbamoyl)thiophen-2-yl)-4-(pyridin-2-yl)piperazine-1-carboxamide]	4.65	3.93	–
CN(Cc1ccccc1)C(=O)c1ccsc1NC(=O)N1CCN(c2ccccn2)CC1 [Compound 173, N-(3-(N-Benzyl-N-methylcarbamoyl)thiophen-2-yl)-4-(pyridin-2-yl)piperazine-1-carboxamide]	4.92	< 3.70	–
CCC(C(=O)Nc1sccc1C(=O)NCc1ccc(F)cc1)c1ccccc1 (centres unmarked) [Compound 179, 2-(2-Phenylbutanamido)-N-(4-fluorobenzyl)thiophene-3-carboxamide]	5.02	4.29	–
O=C(NCc1ccc(F)cc1)c1nnsc1NC(=O)N1CCN(c2ccccn2)CC1 [Compound 180, N-(4-(4-Fluorobenzylcarbamoyl)-1,2,3-thiadiazol-5-yl)-4-(pyridin-2-yl)piperazine-1-carboxamide]	4.89	4.41	–
O=C(NCc1ccc(F)cc1)c1ccsc1NC(=O)N1CCN(c2ccccn2)CC1 [Compound 181, N-(3-(4-Fluorobenzylcarbamoyl)thiophen-2-yl)-4-(pyridin-2-yl)piperazine-1-carboxamide]	4.80	3.87	–
O=C(NCCN1CCOCC1)Nc1snnc1C(=O)NCc1ccc(F)cc1 [Compound 182, 1-(4-(4-Fluorobenzylcarbamoyl)-1,2,3-thiadiazol-5-yl)-3-(2-morpholinoethyl)urea]	4.91	< 4.00	–
O=C(NCCN1CCOCC1)Nc1snnc1C(=O)NCc1ccc(Cl)cc1 [Compound 183, 1-(4-(4-Chlorobenzylcarbamoyl)-1,2,3-thiadiazol-5-yl)-3-(2-morpholinoethyl)urea]	4.92	< 4.00	–
O=C(NCCc1ccccn1)Nc1snnc1C(=O)NCc1ccc(F)cc1 [Compound 184, 1-(4-(4-Fluorobenzylcarbamoyl)-1,2,3-thiadiazol-5-yl)-3-(2-(pyridin-2-yl)ethyl)urea]	4.64	4.22	–
O=C(NCCc1ccccn1)Nc1snnc1C(=O)NCc1ccc(Cl)cc1 [Compound 185, 1-(4-(4-Chlorobenzylcarbamoyl)-1,2,3-thiadiazol-5-yl)-3-(2-(pyridin-2-yl)ethyl)urea]	5.02	4.19	–
CCC(C(=O)Nc1sc(C(=O)O)c(C)c1C(=O)OC)c1ccc(C(F)(F)F)cc1 (centres unmarked) [Compound 199, 4-(methoxycarbonyl)-5-(2-(4-(trifluoromethyl)phenyl)butanamido)-3-methylthiophene-2-carboxylic acid]	4.75	–	CC50 (in vitro): > 100 µM
O=C(NN1C(=O)[C@@H]2[C@@H]3C=C[C@@H]([C@H]4C[C@@H]34)[C@@H]2C1=O)c1ccc(C(F)(F)F)cc1 [ST-246]	–	–	ΔTm (D4 [2]; 25 µM): −0.37 ± 0.08; ° C.; ΔTm (D4 [2]; 50 µM): −0.26 ± 0.10 °C; thermal shift (in words) (D4 [2]): no thermal shifts; SPR binding to D4 (in words) (D4 [3]): near-baseline signals; effect on D4 protein levels after Pronase proteolysis (in words) (D4 [4]): did not affect the protein levels of D4

Reference: US20250295652A1, “Inhibitors of Molluscum Contagiosum Infection and Methods Using the Same” (priority 2021, published 2025)
